The results in this text go back to article PMC11077815, “Synthesis and antitumor activity of dolutegravir derivatives bearing 1,2,3-triazole moieties” (BMC Chemistry, 2024).

Data set [1] has as its system H460. Nature of the data set: CCK8 cell viability assay, H460. Format: cell-based, Human. Particulars: for Cell viability (100%): H460, 20 µM, 48 h, CCK8, control = 100%; for IC50: H460, 48 h, CCK8, mean ± SE. The method, then:
(§1) At first, CCK8 assay was carried out to evaluate the anti-proliferative activity of dolutegravir-1,2,3-triazole derivatives against different cancer cell lines. The results of cell viability of three lung cancer cell lines A549, PC-9 and H460 in the presence of compounds 9 and 10 are summarized in Table 2. Cells were treated with different compounds at the concentration of 20 µM for 48 h. […] Human lung cancer cell lines A549, PC-9 and H460 were all obtained from ATCC. Cells were cultured in DMEM or RPMI 1640 medium containing 10% FBS and 1% penicillin/streptomycin at 37 °C with a 5% CO2-humidified atmosphere. CCK8 assay was used to measure cell viability. Cells with a density of 1 × 10^4 cells/well were seeded on the 96-well plates. After adhesion, cells were treated with different diluted compounds or vehicle control DMSO and continue cultured for 48 h. Then, CCK8 reagent was added for one hour incubation at 37 °C with 5% of CO2. Absorbance was measured using a microplate spectrophotometer (Thermo) at 450 nm. The ratio of cell viability of control was taken as 100%. […] Then IC50 of the compounds were investigated using the prism statistical software.
(Tetrazolium assays rely on reduction of a dye to a coloured formazan, in cell work by metabolically active cells.)

Data set [2] concerns PC-9. Kind of data set: CCK8 cell viability assay, PC-9. Format: cell-based, Human. Particulars: for Cell viability (100%): PC9, 20 µM, 48 h, CCK8, control = 100%; for IC50: PC9, 48 h, CCK8, mean ± SE. The method, then: as §1
Data set [3] deals with A549. Nature of the data set: CCK8 cell viability assay, A549. Format: cell-based, Human. As to conditions: for Cell viability (100%): A549, 20 µM, 48 h, CCK8, control = 100%; for IC50: A549, 48 h, CCK8, mean ± SE. The method, then:
as §1

Data set [4] relates to HRM (Human Renal Mesangial) cell line. Nature of the data set: CCK8 cell viability assay, HRM normal cells (toxicity control). In kind it is cell-based. Particulars: HRM normal human cells, 48 h, CCK8, mean ± SE. The method, then:
Based on these preliminary results, compounds 9c, 9e, 9f, 9i, 9k, 9 L, 9p, 9q, 9t, 9u, 9v, 9w, 10c, 10e which were effective to most of the cell lines were chosen for the measurement of the half-maximal inhibitory concentration (IC50). […] HRM (Human Renal Mesangial) cell line was used as a control to study the toxicity of these compounds against normal human cells.
CCK8 assay was used to measure cell viability. Cells with a density of 1 × 10^4 cells/well were seeded on the 96-well plates. After adhesion, cells were treated with different diluted compounds or vehicle control DMSO and continue cultured for 48 h. Then, CCK8 reagent was added for one hour incubation at 37 °C with 5% of CO2. Absorbance was measured using a microplate spectrophotometer (Thermo) at 450 nm. The ratio of cell viability of control was taken as 100%. […] Then IC50 of the compounds were investigated using the prism statistical software.

Usually IC50 stands for the concentration that inhibits the measured activity by half.

Where only a bound is given, the exact number is not on record here.

For the compound `COc1c2n(cc(C(=O)Nc3cccc(-c4cn(Cc5ccccc5C)nn4)c3)c1=O)CC1OCCC(C)N1C2=O` (centres unmarked) [Compound 10 g], the results for the “Cell viability (100%)” value in data set [1], in data set [2] and in data set [3] were 35.98%, 54.61% and 71.58%, respectively.

With `COc1c2n(cc(C(=O)Nc3cccc(-c4cn(Cc5cccc(Br)c5)nn4)c3)c1=O)C[C@@H]1OCC[C@@H](C)N1C2=O` [Compound 10e], the “Cell viability (100%)” value is 28.88% in data set [1], 49.85% in data set [2] and 96.13% in data set [3]. The IC50 in data set [1] is 9.44 ± 1.53 µM; in data set [4], more than 50 µM; in data set [2], 10.1 ± 0.71 µM; in data set [3] it was more than 50 µM.

As for `COc1c2n(cc(C(=O)Nc3cccc(-c4cn(Cc5ccccc5C(F)(F)F)nn4)c3)c1=O)CC1OCCC(C)N1C2=O` (centres unmarked) [Compound 10 h], the “Cell viability (100%)” value in data set [1] was 28.10%; in data set [2], 66.77%; in data set [3], 77.72%.

Take `COc1c2n(cc(C(=O)Nc3cccc(-c4cn(-c5cc(C(F)(F)F)ccc5C(F)(F)F)nn4)c3)c1=O)C[C@@H]1OCC[C@@H](C)N1C2=O` [Compound 9q]: the “Cell viability (100%)” value in data set [1] is 17.63%; in data set [2], 18.17%; in data set [3], 54.85%. For the same compound, the IC50 in data set [1] is 16.5 ± 0.57 µM; in data set [4], more than 50 µM; in data set [2] it was 6.78 ± 0.31 µM; in data set [3], 13.6 ± 1.79 µM.

As to `COc1c2n(cc(C(=O)Nc3cccc(-c4cn(Cc5ccccc5F)nn4)c3)c1=O)CC1OCCC(C)N1C2=O` (centres unmarked) [Compound 10f], the “Cell viability (100%)” value in data set [1] is 32.43%; in data set [2] it was 61.10%; in data set [3], 82.22%.

As to `COc1c2n(cc(C(=O)Nc3cccc(-c4cn(-c5ccccc5)nn4)c3)c1=O)C[C@@H]1OCC[C@@H](C)N1C2=O` [Compound 9o], the results for the “Cell viability (100%)” value in data set [1], in data set [2] and in data set [3] were 87.72%, 94.56% and 78.59%, respectively.

`CCc1ccc(-n2cc(-c3cccc(NC(=O)c4cn5c(c(OC)c4=O)C(=O)N4[C@H](C)CCO[C@H]4C5)c3)nn2)cc1` [Compound 9 m]: the “Cell viability (100%)” value in data set [1] was found to be 62.63%; in data set [2] it was 63.65%; in data set [3], 65.08%.

Regarding `COc1c2n(cc(C(=O)Nc3cccc(-c4cn(-c5cc(C(F)(F)F)cc(C(F)(F)F)c5)nn4)c3)c1=O)C[C@@H]1OCC[C@@H](C)N1C2=O` [Compound 9r], the results for the “Cell viability (100%)” value in data set [1], in data set [2] and in data set [3] were 117.07%, 98.55% and 90.73%, respectively.

In the case of `COc1cc([N+](=O)[O-])ccc1-n1cc(-c2cccc(NC(=O)c3cn4c(c(OC)c3=O)C(=O)N3[C@H](C)CCO[C@H]3C4)c2)nn1` [Compound 9b], the “Cell viability (100%)” value in data set [1] was found to be 98.64%; in data set [2], 104.86%; in data set [3], 92.60%.

Take `COc1ccccc1-n1cc(-c2cccc(NC(=O)c3cn4c(c(OC)c3=O)C(=O)N3[C@H](C)CCO[C@H]3C4)c2)nn1` [Compound 9t]: the “Cell viability (100%)” value in data set [1] worked out at 3.27%; in data set [2], 4.56%; in data set [3], 7.32%. Further, the IC50 is 14.2 ± 0.16 µM in data set [1], more than 50 µM in data set [4], 6.75 ± 1.43 µM in data set [2] and 17.3 ± 0.73 µM in data set [3].

On to `COc1c2n(cc(C(=O)Nc3cccc(-c4cn(Cc5ccccc5Br)nn4)c3)c1=O)C[C@@H]1OCC[C@@H](C)N1C2=O` [Compound 10c], for which the “Cell viability (100%)” value in data set [1] was 41.79%; in data set [2] it was 50.54%; in data set [3] it was 68.05%. Moreover, the IC50 in data set [1] is 15.4 ± 1.38 µM; in data set [4] it was more than 50 µM; in data set [2], 12.1 ± 0.46 µM; in data set [3], more than 50 µM.

For `COc1c2n(cc(C(=O)Nc3cccc(-c4cn(-c5ccccc5OC(F)(F)F)nn4)c3)c1=O)C[C@@H]1OCC[C@@H](C)N1C2=O` [Compound 9i], the entries for the “Cell viability (100%)” value in data set [1], in data set [2] and in data set [3] were 8.52%, 18.95% and 17.41%, respectively. Moreover, the IC50 in data set [1] was 8.24 ± 2.06 µM; in data set [4], more than 50 µM; in data set [2], 4.53 ± 0.31 µM; in data set [3] it was 11.1 ± 1.07 µM.

Regarding `COc1c2n(cc(C(=O)Nc3cccc(-c4cn(-c5ccc(C(C)(C)C)cc5)nn4)c3)c1=O)C[C@@H]1OCC[C@@H](C)N1C2=O` [Compound 9n], the “Cell viability (100%)” value in data set [1] was 24.58%; in data set [2], 59.44%; in data set [3], 67.60%.

As to `CCOc1ccc(-n2cc(-c3cccc(NC(=O)c4cn5c(c(OC)c4=O)C(=O)N4[C@H](C)CCO[C@H]4C5)c3)nn2)cc1` [Compound 9 h], the entries for the “Cell viability (100%)” value in data set [1], in data set [2] and in data set [3] were 52.87%, 71.96% and 77.55%, respectively.

For `COc1cccc(Cn2cc(-c3cccc(NC(=O)c4cn5c(c(OC)c4=O)C(=O)N4[C@H](C)CCO[C@H]4C5)c3)nn2)c1` [Compound 10d], the “Cell viability (100%)” value in data set [1] is on record as 77.21%; in data set [2] it was 83.17%; in data set [3], 89.00%.

Regarding `COc1c2n(cc(C(=O)Nc3cccc(-c4cn(-c5ccc(C(F)(F)F)cc5)nn4)c3)c1=O)C[C@@H]1OCC[C@@H](C)N1C2=O` [Compound 9d], the “Cell viability (100%)” value in data set [1] is reported as 69.71%; in data set [2], 105.15%; in data set [3], 82.37%.

Take `COc1c2n(cc(C(=O)Nc3cccc(-c4cn(Cc5ccccc5)nn4)c3)c1=O)C[C@@H]1OCC[C@@H](C)N1C2=O` [Compound 10b]: the “Cell viability (100%)” value came to 55.00% in data set [1], 96.85% in data set [2] and 87.18% in data set [3].

As to `COc1ccc(-n2cc(-c3cccc(NC(=O)c4cn5c(c(OC)c4=O)C(=O)N4[C@H](C)CCO[C@H]4C5)c3)nn2)cc1OC` [Compound 9j], the “Cell viability (100%)” value is on record as 92.89% in data set [1], 85.93% in data set [2] and 87.42% in data set [3].

As to `COc1ccc(-n2cc(-c3cccc(NC(=O)c4cn5c(c(OC)c4=O)C(=O)N4C(C)CCOC4C5)c3)nn2)cc1` (centres unmarked) [Compound 9x], the “Cell viability (100%)” value in data set [1] amounted to 108.05%; in data set [2], 78.11%; in data set [3], 69.21%.

Take `COc1c2n(cc(C(=O)Nc3cccc(-c4cn(-c5ccc(C)cc5)nn4)c3)c1=O)C[C@@H]1OCC[C@@H](C)N1C2=O` [Compound 9y]: the “Cell viability (100%)” value in data set [1] was 94.78%; in data set [2] it was 79.67%; in data set [3], 85.43%.

Turning to `COc1c2n(cc(C(=O)Nc3cccc(-c4cn(-c5c(C)cc(C)cc5C)nn4)c3)c1=O)C[C@@H]1OCC[C@@H](C)N1C2=O` [Compound 9z], the “Cell viability (100%)” value in data set [1] was 55.57%; in data set [2], 73.07%; in data set [3], 91.32%.

Consider `COc1c2n(cc(C(=O)Nc3cccc(-c4cn(-c5ccccc5C)nn4)c3)c1=O)C[C@@H]1OCC[C@@H](C)N1C2=O` [Compound 9s], for which the “Cell viability (100%)” value in data set [1] is 48.37%; in data set [2] it was 65.73%; in data set [3] it was 82.07%.

Regarding `COc1c2n(cc(C(=O)Nc3cccc(-c4cn(-c5ccc(F)cc5)nn4)c3)c1=O)C[C@@H]1OCC[C@@H](C)N1C2=O` [Compound 9 g], the “Cell viability (100%)” value in data set [1] came out at 97.85%; in data set [2], 88.64%; in data set [3], 91.65%.

On to `COc1c2n(cc(C(=O)Nc3cccc(-c4cn(-c5ccccc5F)nn4)c3)c1=O)C[C@@H]1OCC[C@@H](C)N1C2=O` [Compound 9a], for which the “Cell viability (100%)” value is listed as 47.20% in data set [1], 52.03% in data set [2] and 95.90% in data set [3].

With `COc1c2n(cc(C(=O)Nc3cccc(-c4cn(Cc5cc(Br)cc(Br)c5)nn4)c3)c1=O)C[C@@H]1OCC[C@@H](C)N1C2=O` [Compound 10a], the “Cell viability (100%)” value in data set [1] was 82.32%; in data set [2], 103.57%; in data set [3] it was 87.40%.
